In ChEMBL document CHEMBL5291721, “A preclinical secondary pharmacology resource illuminates target-adverse drug reaction associations of marketed drugs” (Nat Commun, 2023) one finds AC50 data, which are given here for 15 molecules.

A value given as a limit tells only on which side of the number the result lay.

Test [1] addresses T1, Alpha-2B adrenergic receptor (Homo sapiens, UniProt P18089).
T1 sequence (P18089 whole entry): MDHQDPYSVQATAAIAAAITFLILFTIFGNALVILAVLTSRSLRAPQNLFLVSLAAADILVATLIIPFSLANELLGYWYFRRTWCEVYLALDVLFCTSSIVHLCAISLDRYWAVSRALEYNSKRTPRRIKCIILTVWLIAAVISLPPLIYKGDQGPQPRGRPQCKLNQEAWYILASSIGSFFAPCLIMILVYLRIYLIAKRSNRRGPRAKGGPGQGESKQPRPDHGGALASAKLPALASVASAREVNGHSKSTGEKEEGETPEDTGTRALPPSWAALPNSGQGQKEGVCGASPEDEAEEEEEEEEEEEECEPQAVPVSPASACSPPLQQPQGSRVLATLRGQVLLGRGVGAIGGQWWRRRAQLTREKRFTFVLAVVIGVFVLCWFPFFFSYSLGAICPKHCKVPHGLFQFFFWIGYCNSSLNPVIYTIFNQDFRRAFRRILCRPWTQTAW

Test [2] addresses T2, Alpha-2C adrenergic receptor (Homo sapiens, UniProt P18825).
T2 sequence (P18825 whole entry): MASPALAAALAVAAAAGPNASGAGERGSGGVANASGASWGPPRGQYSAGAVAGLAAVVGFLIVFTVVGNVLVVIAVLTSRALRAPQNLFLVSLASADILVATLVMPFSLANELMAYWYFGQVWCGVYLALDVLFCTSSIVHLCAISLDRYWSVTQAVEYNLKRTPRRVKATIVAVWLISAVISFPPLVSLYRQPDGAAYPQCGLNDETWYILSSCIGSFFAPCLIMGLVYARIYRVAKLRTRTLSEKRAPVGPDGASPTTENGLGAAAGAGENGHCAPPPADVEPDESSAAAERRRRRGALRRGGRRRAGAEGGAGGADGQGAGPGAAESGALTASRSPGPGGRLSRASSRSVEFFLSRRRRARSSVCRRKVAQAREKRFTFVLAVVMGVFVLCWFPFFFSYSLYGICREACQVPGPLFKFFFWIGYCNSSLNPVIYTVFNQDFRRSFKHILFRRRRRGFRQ
The class given is functional.

In test [3] the target is T3, Cholecystokinin receptor type A (Homo sapiens, UniProt P32238).
T3 sequence (P32238 whole entry): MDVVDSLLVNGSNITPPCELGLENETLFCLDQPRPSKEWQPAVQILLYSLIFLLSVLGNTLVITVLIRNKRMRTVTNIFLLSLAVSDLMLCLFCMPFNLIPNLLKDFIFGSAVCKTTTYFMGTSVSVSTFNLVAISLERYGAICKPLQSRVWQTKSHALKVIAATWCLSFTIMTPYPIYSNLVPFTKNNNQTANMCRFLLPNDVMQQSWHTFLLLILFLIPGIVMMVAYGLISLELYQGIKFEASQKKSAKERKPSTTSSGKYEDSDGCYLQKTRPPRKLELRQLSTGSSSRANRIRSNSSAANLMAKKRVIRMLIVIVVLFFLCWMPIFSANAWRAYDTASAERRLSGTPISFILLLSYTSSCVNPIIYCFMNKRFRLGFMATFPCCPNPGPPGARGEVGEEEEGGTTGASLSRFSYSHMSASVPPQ

A further test addresses Vasopressin V2 receptor (Homo sapiens, UniProt P30518).
For a further test, the target named is T4, Adenosine receptor A3 (Homo sapiens, UniProt P0DMS8).
T4 sequence (P0DMS8 whole entry): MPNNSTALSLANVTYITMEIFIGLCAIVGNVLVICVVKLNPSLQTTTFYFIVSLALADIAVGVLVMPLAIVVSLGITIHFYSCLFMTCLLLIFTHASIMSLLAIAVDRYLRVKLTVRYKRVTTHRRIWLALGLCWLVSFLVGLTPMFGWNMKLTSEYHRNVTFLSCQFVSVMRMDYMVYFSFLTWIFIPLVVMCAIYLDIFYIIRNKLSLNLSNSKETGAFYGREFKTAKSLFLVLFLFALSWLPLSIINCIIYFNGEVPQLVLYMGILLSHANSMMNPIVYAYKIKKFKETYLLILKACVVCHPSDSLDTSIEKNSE

The next test has as its target T5, Progesterone receptor (Homo sapiens, UniProt P06401).
T5 sequence (P06401 whole entry): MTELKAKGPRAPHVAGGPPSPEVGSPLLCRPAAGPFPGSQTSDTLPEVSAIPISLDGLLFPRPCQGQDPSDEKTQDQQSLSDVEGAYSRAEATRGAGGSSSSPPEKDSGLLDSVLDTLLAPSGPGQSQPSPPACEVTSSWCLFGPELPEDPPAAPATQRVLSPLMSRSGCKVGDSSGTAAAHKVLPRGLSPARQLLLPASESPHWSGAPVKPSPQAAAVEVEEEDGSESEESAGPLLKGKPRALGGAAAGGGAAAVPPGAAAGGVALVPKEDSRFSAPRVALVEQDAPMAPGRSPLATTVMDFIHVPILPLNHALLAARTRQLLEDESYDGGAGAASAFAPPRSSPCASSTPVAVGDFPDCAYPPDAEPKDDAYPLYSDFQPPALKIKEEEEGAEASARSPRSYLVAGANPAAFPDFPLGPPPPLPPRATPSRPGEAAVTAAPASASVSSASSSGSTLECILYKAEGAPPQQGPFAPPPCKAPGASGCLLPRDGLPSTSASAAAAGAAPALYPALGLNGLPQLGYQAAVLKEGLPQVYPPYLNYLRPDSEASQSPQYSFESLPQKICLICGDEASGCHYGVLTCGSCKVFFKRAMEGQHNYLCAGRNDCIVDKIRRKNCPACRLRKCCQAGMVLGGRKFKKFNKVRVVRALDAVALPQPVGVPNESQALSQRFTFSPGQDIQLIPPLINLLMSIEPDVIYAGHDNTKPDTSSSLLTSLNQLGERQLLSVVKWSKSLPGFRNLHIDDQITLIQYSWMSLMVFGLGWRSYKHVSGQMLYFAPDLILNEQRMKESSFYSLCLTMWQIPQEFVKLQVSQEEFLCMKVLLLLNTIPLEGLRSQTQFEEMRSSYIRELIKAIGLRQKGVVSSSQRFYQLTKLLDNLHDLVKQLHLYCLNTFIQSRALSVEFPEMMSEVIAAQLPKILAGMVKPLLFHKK
The class given is functional.
Further: assay procedure not described here.

Sequence of Vasopressin V2 receptor (P30518 whole entry): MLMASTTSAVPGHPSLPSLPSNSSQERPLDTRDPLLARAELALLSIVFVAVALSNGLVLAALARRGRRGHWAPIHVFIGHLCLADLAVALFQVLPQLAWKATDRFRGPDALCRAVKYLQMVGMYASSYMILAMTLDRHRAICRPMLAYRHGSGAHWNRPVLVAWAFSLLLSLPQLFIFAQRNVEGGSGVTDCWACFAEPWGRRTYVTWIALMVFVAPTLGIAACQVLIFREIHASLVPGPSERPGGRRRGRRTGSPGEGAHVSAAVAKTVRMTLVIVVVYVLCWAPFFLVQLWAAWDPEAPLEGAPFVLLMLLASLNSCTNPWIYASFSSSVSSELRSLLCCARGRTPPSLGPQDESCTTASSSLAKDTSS

`Cc1nc2ccc(CN(C)c3ccc(C(=O)N[C@@H](CCC(=O)O)C(=O)O)s3)cc2c(=O)[nH]1` [RALTITREXED]: the AC50 (in test [1]; in test [2]; in test [3]; at Vasopressin V2 receptor; on Adenosine receptor A3; on Progesterone receptor) was more than 30 µM throughout.

With `CC1=CC(=O)c2ccccc2C1=O` [MENADIONE], the AC50 in test [1] was more than 10 µM; in test [2], more than 30 µM; in test [3] it was more than 10 µM; at Vasopressin V2 receptor it was more than 10 µM; on Adenosine receptor A3 it was 13.7 µM; at Progesterone receptor, more than 30 µM.

`CC(=O)OCC(=O)[C@@]12OC3(CCCC3)O[C@@H]1C[C@H]1[C@@H]3CCC4=CC(=O)C=C[C@]4(C)[C@@]3(F)[C@@H](O)C[C@@]12C` [AMCINONIDE]: the AC50 was more than 10 µM in test [1]; more than 10 µM in test [2]; more than 10 µM in test [3]; more than 10 µM on Vasopressin V2 receptor; more than 10 µM at Adenosine receptor A3; 0.212 µM at Progesterone receptor.

As for `C#CCN[C@@H]1CCc2ccccc21` [RASAGILINE], the AC50 in test [1] was 8.79 µM; in test [2], 21 µM; in test [3], more than 30 µM; on Vasopressin V2 receptor, more than 30 µM; on Adenosine receptor A3 it was more than 30 µM; on Progesterone receptor, more than 30 µM.

`CCC(C(=O)O)c1ccc(CC(C)C)cc1` (stereo not given) [BUTIBUFEN]: the AC50 (in test [1]; in test [2]; in test [3]; at Vasopressin V2 receptor; at Adenosine receptor A3; on Progesterone receptor) was more than 30 µM in each case.

For `COC(=O)C1=C(C)NC(C)=C(C(=O)OC(C)C)C1c1cccc2nonc12` (stereo not given) [ISRADIPINE], the AC50 is more than 30 µM in test [1]; more than 30 µM in test [2]; more than 30 µM in test [3]; more than 30 µM on Vasopressin V2 receptor; 20.3 µM on Adenosine receptor A3; more than 30 µM at Progesterone receptor.

`CCCCCN(C)CCC(O)(P(=O)(O)O)P(=O)(O)O` [IBANDRONIC ACID]: the AC50 (in test [1]; in test [2]; in test [3]; on Vasopressin V2 receptor; at Adenosine receptor A3; on Progesterone receptor) was more than 30 µM each time.

For `CCCC(CCC)C(=O)O[C@H]1C[C@H]2CC[C@@H](C1)[N+]2(C)C` [ANISOTROPINE], the concentration at half-maximal activity (AC50) (in test [1]; in test [2]; in test [3]; on Vasopressin V2 receptor; on Adenosine receptor A3; at Progesterone receptor) was more than 30 µM in each case.

As to `CCCCOc1cc(C(=O)NCCN(CC)CC)c2ccccc2n1` [DIBUCAINE], the AC50 in test [1] was more than 10 µM; in test [2], more than 10 µM; in test [3], more than 30 µM; at Vasopressin V2 receptor, more than 30 µM; on Adenosine receptor A3 it was more than 30 µM; on Progesterone receptor it was more than 10 µM.

Regarding `Cc1ccc(-c2nc3ccc(C)cn3c2CC(=O)N(C)C)cc1` [ZOLPIDEM], the AC50 (in test [1]; in test [2]; in test [3]; at Vasopressin V2 receptor; on Adenosine receptor A3; at Progesterone receptor) was more than 30 µM throughout.

On to `CCOC(=O)[C@H](CCc1ccccc1)N[C@H]1CCCN2CCC[C@@H](C(=O)O)N2C1=O` [CILAZAPRIL], for which the AC50 (in test [1]; in test [2]; in test [3]; on Vasopressin V2 receptor; at Adenosine receptor A3; on Progesterone receptor) was more than 30 µM throughout.

As for `CCCCCCC(C)(C)c1cc(O)c2c(c1)OC(C)(C)C1CCC(=O)CC21` (stereo not given) [NABILONE], the AC50 is more than 30 µM in test [1]; more than 30 µM in test [2]; more than 30 µM in test [3]; more than 30 µM at Vasopressin V2 receptor; 9.1 µM at Adenosine receptor A3; more than 30 µM on Progesterone receptor.

`C[C@H]1C[C@@H]2[C@H]([C@@H](O)C[C@@]3(C)[C@H]2CC[C@]3(O)C(=O)COC(=O)CCC(=O)O)[C@@]2(C)C=CC(=O)C=C12` [METHYLPREDNISOLONE HEMISUCCINATE]: the AC50 (in test [1]; in test [2]; in test [3]; at Vasopressin V2 receptor; on Adenosine receptor A3; at Progesterone receptor) was more than 30 µM throughout.

Regarding `CCOc1cc(N)c([N+](=O)[O-])cc1C(=O)NC1CCN(CC2CC=CCC2)CC1` (stereo not given) [CINITAPRIDE], the AC50 in test [1] is 9.3 µM; in test [2], 1.3 µM; in test [3] it was more than 30 µM; on Vasopressin V2 receptor, more than 30 µM; at Adenosine receptor A3, more than 30 µM; at Progesterone receptor it was more than 30 µM.

In the case of `COC(=O)[C@H]1[C@@H](OC(=O)c2ccccc2)C[C@@H]2CC[C@H]1N2C` [COCAINE], the AC50 (in test [1]; in test [2]; in test [3]; at Vasopressin V2 receptor; at Adenosine receptor A3; on Progesterone receptor) was more than 30 µM throughout.
